We go through four compounds from patent US10322998B2, “Heterogeneous foldamers containing α, β, and/or γ-amino acids” (WISCONSIN ALUMNI RESEARCH FOUNDATION, priority 2002, dated 2019).

The nature of this data set: Solubility, qualitative observations during synthesis and characterisation.

With `CC(C)(CNC(=O)[C@H]1CC[C@H](NC(=O)[C@H]2CC[C@H](NC(=O)Cc3ccccc3)C2)C1)NC(=O)[C@H]1CCCN1C(=O)[C@H]1CC[C@H](NC(=O)[C@H]2CC[C@H](NC(=O)C(C)(C)C)C2)C1` [compound 3], the “solubility in CD2Cl2” value (CD2Cl2) is on record as “nearly insoluble”.

On to `CC(=O)NC1CCCC1C(=O)N[C@@H](Cc1ccccc1)C(=O)NC1CCCC1C(=O)N[C@@H](Cc1ccccc1)C(=O)NC1CCCC1C(=O)N[C@@H](Cc1ccccc1)C(N)=O` (stereo partly shown) [Peptide 42], for which the “solubility in common solvents” value (crude compound, water, methanol, acetonitrile, acetone, ethyl acetate, methylene chloride, DMSO) is recorded as “insoluble”.

As to `CC(C)[C@@H](NC(=O)OC(C)(C)C)C(=O)N[C@@H]1CCCC[C@H]1C(=O)N[C@@H](C(=O)N[C@@H]1CCCC[C@H]1C(=O)OCc1ccccc1)C(C)C` [2-28, Boc-D-Val-ACHC-D-Val-ACHC-Olin], under “organic solvents, crude product”, the “solubility in organic solvents” value is reported as “poor solubility”.

Regarding `COC(=O)[C@H]1CC[C@H](NC(=O)[C@H]2CC[C@H](NC(=O)[C@H]3CC[C@H](NC(=O)[C@H]4CC[C@H](NC(=O)OC(C)(C)C)C4)C3)C2)C1` [Compound 7], the “solubility in other solvents” value (solvents other than 1:1 CDCl3:CD3OD) is “poor solubility”.
